Data on three molecules can be found in US20050107394A1, “Novel use of selective pde5 inhibitors” (priority 2001, published 2005).

“And” between values parts separate entries of the source, which are not always exact repeats. Equal values may be shown once.

Assay [1] relates to bleomycin-induced pulmonary fibrosis in rabbits. Nature of the assay: Shunting by MIGET in bleomycin-induced pulmonary fibrosis. The assay is classed as in vivo, rabbit. The note with it: for effect on shunting: NO inhaled, sildenafil oral; for shunting (MIGET), level reached: PGI 6 ng/kg/min systemic, NO 20 ppm inhaled, sildenafil 1 mg/kg oral. Here is the method:
FIG. 1: Result of determination of shunting with the aid of the model of bleomycin-induced pulmonary fibrosis in rabbits. The measurements by the inert gas exchange method (MIGET) [Wagner et al., J Appl Physiol. 1974;36:588-99] reveal that the shunting was increased by 15% in this model, compared with the untreated control. Systemically administered PGI [6 ng/kg body weight/min] (PGI, prostacyclin) increased the shunting to about 30%. […] Shunting was reduced to 6% by oral administration of the PDE5 inhibitor sidenafil [1 mg/kg body weight].
Healthy rabbits of both sexes were pretreated orally with a gyrase inhibitor (Baytril®) for one week. Ten animals pretreated in this way were not treated with bleomyin and served as control, and, on the day of exposure, the others were anaesthetized with a Ketanest®/Rompun® mixture, intubated intratracheally and ventilated mechanically. An ultrasonic nebulizer (MMAD 2.5 μm) was used to administer by inhalation exactly 1.8 U/kg of bodyweight of bleomycin under volume-controlled ventilation. After 4, 8, 16, 24, 32 and 64 days (in each case n≧5) post exposure, the animals were again anaesthetized, provided with an arterial access (right carotid artery) and underwent bodyweight-adapted ventilation via a tracheostomy in a volume-controlled method. The arterial pO2 and pCO2, and the static compliance of the lung were measured (by recording the intrathoracic pressure and with slow inflation/deflation manoeuvres). Subsequently, the lungs of these animals were dissected and perfused with a Krebs Hensefeit buffer. Under these conditions, the capillary filtraton coefficient (cfc) was then found from the weight gain of the organ after increasing the pulmonary venous pressure by 7.5 mmHg, and the peak ventilation pressure was found. After completion of these measurements, the left main bronchus was ligated in the end-inspiratory position and a bronchoalveolar lavage (BAL) was performed on the right lung. Subsequently, the large vessels and airways of the right lung were dissected off and the organ was homogenized. The left lung was perfusion-fixed with 4% formalin solution while maintaining a pressure gradient of 25 cm H2O and was then stored in 4% formalin until embedded. Firstly, the cells were removed from the BAL, counted and differentiated via a Papenheim stain. The cell-free BAL supernatant was then aliquoted and submitted to further analysis of the surfactant and coagulation properties and a determination of the matrix metallo proteinases (MMPs) and their inhibitors (TIMPs) and of soluble collagen. Bronchoalveolar deposition of 1.8 U/kg of bodyweight of bleomycin led initially to development of an ARDS-like event, with a massive restriction of gas exchange (paO2/FiO2 of >500 mmHg in the controls reduced to ˜110 mmHg on day 4), ground-glass opacities over all sections of the lung in the HRCT and an increase of about 5-fold in the capillary filtration coefficient (cfc). In the later phase of bleomycin-induced lung damage there was then development of pronounced fibrosis which could be confirmed on the basis of the increase in soluble collagen in the BAL and the hydroxyproline in the tissue, on the basis of the histological specimens and of the HRCT findings. […] Consistent with this, a pronounced increase in the extracellular matrix and an alveolar and also interstitial ingress of fibroblasts was observable in the histological sections. […]

In assay [2] the test system is patients with chronic thromboembolism and displaying secondary PHT. The assay is described as follows: Arterial oxygen partial pressure in patients with chronic thromboembolism. It counts as in vivo, human. As to conditions: 7 patients; for effect on arterial oxygen partial pressure: FIG. 4; for arterial oxygen partial pressure (PaO2), improvement: NO 20 ppm inhaled, sildenafil 50 mg oral. Here is the method: (§1) FIG. 4: Result of measurement of the arterial oxygen partial pressure (PaO2) on 7 patients with chronic thromboembolism and displaying secondary PHT (pulmonary hypertension). The arterial oxygen partial pressure was improved by NO (inhaled) [20 ppm] and sildenafil (oral) [50 mg] by respectively 1.8% and 7.6%, whereas the oxygen saturation fell by 13% after administration of PGI (intravenous). In the same experiment, the vascular resistance was measured and determined as delta PVR by a right cardiac catheterization. The vascular resistance was reduced respectively by 25%, 19% and 21% after administration of PGI (intravenous) [6 ng/kg bodyweight/min], NO (inhaled) [20 ppm] and sildenafil (oral) [50 mg].
(§2) 7 patients with CTEPH underwent a Swan-Ganz catheter investigation with measurement of the ventilation/perfusion (V/Q) distribution (using the multiple inert gas elimination technique (MIGET)). After determination of the baseline parameters (haemodynamics and gas exchange), all the patients initially inhaled 20 ppm NO, followed by a second baseline period (10-15 min), and then PGI was infused (6 ng/kg bodyweight/min), again followed by a second baseline period (10-15 min) and then an oral dose of 50 mg of sildenafil was given (120-150 min follow-up). 3 of the 7 patients were controlled by continuous nasal oxygen therapy in order to reach an arterial oxygenation of >88%. The following parameters were measured under baseline conditions: mean pulmonary arterial pressure (mPAP) 52.1 +/−3.3 mmHg, cardiac index (CI) 2.2+/−0.1 |* min^−1*m^−2, pulmonary vascular resistance index (PVRI) 1703.8+/−129.5 dyn*s*cm^−6*m^2, arterial pO2 72.5+/−3.3 mmHg and mixed venous oxygen saturation (SvO2) of 63.4+/−2.2%.

The test system is the same in assay [3]. Nature of the assay: Pulmonary vascular resistance (delta PVR, right cardiac catheterization) in patients with chronic thromboembolism. It counts as in vivo, human. The note with it: for effect on pulmonary vascular resistance: 7 patients with CTEPH; for vascular resistance (PVR), reduction: 7 patients, PGI i.v. 6 ng/kg/min, NO 20 ppm inhaled, sildenafil 50 mg oral. Here is the method:
as §1, §2

The subject of assay [4] is patients with ILD displaying secondary PHT. The assay is described as follows: Arterial oxygen partial pressure (delta PaO2) in patients with ILD. The assay is classed as in vivo, human. As to conditions: 7 patients with ILD; for arterial oxygen partial pressure (delta PaO2) / O2 saturation, increase: NO 20 ppm inhaled, sildenafil 50 mg oral.
Description: FIG. 6: Result of determination of the arterial oxygen partial pressure (PaO2) on 7 patients with ILD displaying secondary PHT (pulmonary hypertension) measured as delta PaO2.
as §2, with “ILD” for “CTEPH”, “5” for “3”, “39.6+/−2.8 mmHg and” for “52.1 +/−3.3 mmHg, cardiac index (CI) 2.2+/−0.1 |* min^−1*m^−2,”, “1255+/−215 dyn*s*cm−5*m^2.” for “1703.8+/−129.5 dyn*s*cm^−6*m^2, arterial pO2 72.5+/−3.3 mmHg and mixed venous oxygen saturation (SvO2) of 63.4+/−2.2%.”

Assay [5] has the same test system. Nature of the assay: Pulmonary vascular resistance in patients with ILD. The assay is classed as in vivo, human. As to conditions: 7 patients with ILD. Here is the method: as §2, with “ILD” for “CTEPH”, “5” for “3”, “39.6+/−2.8 mmHg and” for “52.1 +/−3.3 mmHg, cardiac index (CI) 2.2+/−0.1 |* min^−1*m^−2,”, “1255+/−215 dyn*s*cm−5*m^2.” for “1703.8+/−129.5 dyn*s*cm^−6*m^2, arterial pO2 72.5+/−3.3 mmHg and mixed venous oxygen saturation (SvO2) of 63.4+/−2.2%.”
By contrast, PGI (intravenous) increased the lung areas from 7% to almost 20% and thus caused a deterioration in matching (FIG. 5). Corresponding to the matching, PGI reduced the O2 saturation by 12%, whereas NO brought about an improvement of 5% and sildenafil one of 15% (FIG. 6).

`[N]=O` [NO, nitric oxide]: in assay [1], the “effect on shunting” value is “reduced the shunting” and the “shunting (MIGET), level reached” value is on record as 9%. Also, in assay [2], the “effect on arterial oxygen partial pressure” value was “not changed” and the “arterial oxygen partial pressure (PaO2), improvement” value is 1.8%. Besides, in assay [3], the “effect on pulmonary vascular resistance” value is “marked reduction” and the “vascular resistance (PVR), reduction” value is recorded as 19%. For the same molecule, in assay [4], the “arterial oxygen partial pressure (delta PaO2) / O2 saturation, increase” value is 5% and 4.8%. In addition, in assay [5], the “effect on pulmonary vascular resistance” value is “marked reduction” and the “pulmonary vascular resistance (PVR), reduction” value is given as “about 25%”.
`CCCCC[C@H](O)/C=C/[C@@H]1[C@H]2C/C(=C/CCCC(=O)O)O[C@H]2C[C@H]1O` [PGI, prostacyclin]: in assay [1], the “shunting (MIGET), level reached” value is on record as “about 30%”. The “arterial oxygen partial pressure / oxygen saturation, decrease” value in assay [2] (PGI intravenous 6 ng/kg/min) is 13%. Further, in assay [3], the “effect on pulmonary vascular resistance” value is listed as “marked reduction” and the “vascular resistance (PVR), reduction” value was determined as 25%. Moreover, in assay [4] (PGI intravenous 6 ng/kg/min), the “arterial oxygen partial pressure / oxygen saturation, decrease” value was 12.5% and 12%. Besides, in assay [5], the “effect on pulmonary vascular resistance” value is reported as “marked reduction” and the “pulmonary vascular resistance (PVR), reduction” value was “about 25%”.
Take `CCCc1nn(C)c2c(=O)[nH]c(-c3cc(S(=O)(=O)N4CCN(C)CC4)ccc3OCC)nc12` [sildenafil, 5-[2-ethoxy-5-(4-methyl-1-piperazinyl-sulphonyl)phenyl]-1-methyl-3-n-propyl-1,6-dihydro-7H-pyrazolo[4,3-d]pyrimidin-7-one]: in assay [1], the “effect on shunting” value is on record as “reduced the shunting even more than NO” and the “shunting (MIGET), level reached” value stood at 6%. In assay [2], the “effect on arterial oxygen partial pressure” value is reported as “increased” and the “arterial oxygen partial pressure (PaO2), improvement” value worked out at 7.6%. In assay [3], the “effect on pulmonary vascular resistance” value is listed as “marked reduction” and the “vascular resistance (PVR), reduction” value was determined as 21%. Besides, the “arterial oxygen partial pressure (delta PaO2) / O2 saturation, increase” value in assay [4] was 15% and 13%. For the same molecule, in assay [5], the “effect on pulmonary vascular resistance” value is given as “marked reduction” and the “pulmonary vascular resistance (PVR), reduction” value is on record as “about 25%”.
